According to patent publication US12630537B2, “Pyridazinone and methods of use thereof” (ALIGOS THERAPEUTICS, INC., priority 2020, dated 2026):
Where two headings read alike, the source gives them in different places.

Legend:
[1] = Microsomal stability assay, human; type: in vitro ADME; settings: for Liver Microsomes % Remaining: 1 μM, time point not given; for half-life at 1 μM: liver microsomes, pH 7.4, 0.5 mg/mL microsomes, read-out: Liver Microsomes T1/2
Method: (§1) The assay was carried out in 96-well microtiter plates. Test compounds, at a final concentration of 1 μM was incubated at 37° C. with 0.5 mg/mL liver microsomes, and +/−1 mM NADPH in 100 mM potassium phosphate, pH 7.4 buffer with 3.3 mM MgCl2. […] At each of the time points (0, 15, 30 and 60 min), incubation was stopped by adding 150 μL of the quenching solutions (100% acetonitrile, 0.1% formic acid) and subsequently the mixtures were vortexed vigorously for 20 min and centrifuged at 4,000 RPM at 4° C. The supernatants (80 μL) were transferred to a clean 96-well plate and analyzed by LC/MS/MS. Verapamil at 1 μM with a final 0.1% DMSO was included as a positive control to verify assay performance.

[2] = target: human thyroid receptor alpha ligand-binding domain (THR-α) (Homo sapiens, UniProt P10827); assay: TR-FRET thyroid receptor coactivator assay (THR biochemical assay), alpha
Excerpt: (§6) The TR-FRET thyroid receptor beta coactivator assay was used with slight, optimized modifications of the manufacturer's protocol (Invitrogen). The assay uses a terbium-labeled anti-GST antibody, a glutathione-S-transferase (GST) tagged human thyroid receptor, beta or alpha, ligand-binding domain (LBD), and a fluorescein labeled SRC2-2 coactivator peptide. […] The energy transfer was detected as an increase in the fluorescence emission of the fluorescein acceptor, and a decrease in the fluorescence emission of the terbium donor. The assay was performed in a 384-well black plate in a final volume of 20 μL. Serial dilution of various test agonists was performed in DMSO (1% final DMSO concentration) and added to the test plate. Thyroid receptor beta LBD was added to the plate at a final concentration of 1 nM, followed by the mixture of the fluorescein labeled SRC2-2 coactivator peptide, and the terbium-labeled anti-GST antibody at final concentrations of 200 nM and 2 nM respectively. The assay was incubated for 1 hr at rt protected from light.

[3] = test system: WT C57BL/6 mice fed a high fat diet; assay: Cholesterol reduction in a murine efficacy model; type: in vivo, mouse; settings: 0.025 mg/kg BID p.o., 7 days, high fat diet C57BL/6 mice
Method: Model description. WT C57BL/6 mice were fed a high fat diet (D12109C) for 2 weeks. Prior to the administration of compound 1a, blood was drawn to measure the baseline lipid levels. Compound 1a was dosed daily (p.o.) for 7 days. Blood was drawn to measure lipid levels.

THR alpha = target: T1, THR alpha (Homo sapiens, UniProt P10827); assay: HEK293T THRalpha/RXR luciferase reporter assay; type: cell-based; settings: HEK293T TRE-luciferase reporter, 18-24 h; read-out: EC50 THR-α (HEK 293 Activity)
T1 construct: expressed in transfected cells; host or cells: HEK293T (ATCC CRL-3216)
T1 sequence (P10827 1-410 isoform P10827-2): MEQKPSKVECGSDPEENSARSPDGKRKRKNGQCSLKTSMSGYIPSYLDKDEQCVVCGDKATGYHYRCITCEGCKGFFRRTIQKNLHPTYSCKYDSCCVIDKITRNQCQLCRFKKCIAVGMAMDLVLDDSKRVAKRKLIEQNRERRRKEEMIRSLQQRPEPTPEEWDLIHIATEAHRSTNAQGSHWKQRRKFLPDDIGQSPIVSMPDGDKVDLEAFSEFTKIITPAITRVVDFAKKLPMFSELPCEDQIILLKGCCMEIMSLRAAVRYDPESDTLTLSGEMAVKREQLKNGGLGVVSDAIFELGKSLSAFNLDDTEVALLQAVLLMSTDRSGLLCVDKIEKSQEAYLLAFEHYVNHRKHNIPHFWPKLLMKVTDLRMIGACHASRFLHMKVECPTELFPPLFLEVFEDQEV
T1 sequence (P19793 1-462 partner): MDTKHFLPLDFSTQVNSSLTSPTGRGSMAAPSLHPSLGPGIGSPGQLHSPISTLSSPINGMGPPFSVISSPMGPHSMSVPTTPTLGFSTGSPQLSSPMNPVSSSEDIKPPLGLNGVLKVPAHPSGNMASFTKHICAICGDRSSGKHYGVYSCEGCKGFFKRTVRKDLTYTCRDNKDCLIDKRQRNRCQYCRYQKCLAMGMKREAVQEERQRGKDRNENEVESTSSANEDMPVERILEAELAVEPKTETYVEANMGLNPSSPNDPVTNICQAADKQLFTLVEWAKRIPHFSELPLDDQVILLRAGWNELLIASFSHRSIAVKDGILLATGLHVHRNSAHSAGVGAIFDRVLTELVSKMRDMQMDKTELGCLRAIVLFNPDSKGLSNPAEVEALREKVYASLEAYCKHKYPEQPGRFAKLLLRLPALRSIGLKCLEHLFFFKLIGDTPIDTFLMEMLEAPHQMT
Method: (§2) The purpose of this assay is to evaluate the effect of compounds on the thyroid hormone nuclear receptor pathway in HEK293T cells. To this end, HEK293T cells are transiently transfected with a luciferase reporter under the control of the thyroid response element (TRE), an RXR expression plasmid and either a THR alpha or THR beta expression plasmid. Transfected cells are stimulated with test compounds for 18-24 hours before activation of the thyroid hormone pathway is measured via a luciferase read-out.
(§3) Procedure. 24 hours prior to transfection, approximately […] HEK293T (ATCC, catalog #CRL-3216) were plated in one well of a 6-well-plate using DMEM (Hyclone, catalog #SH30022) supplemented with 10% FBS (Gibco, catalog #16000-044) and incubated overnight. Transfection complexes were prepared by mixing 12 μL of Lipofectamine 2000 (Invitrogen catalog #11668019) with 4 μg of a plasmid mixture at a ratio of 1:1:4 (TRalpha or TRbeta:RXR:TRE-Luc) in 200 μL OptiMem (Invitrogen catalog #11058-021) and added to the cells. […] Approximately 18-24 h after compound addition, 384 well plates were allowed to adjust to rt, 30 μL One-Glo (Promega catalog #E6120) is added to each well and luminescence was measured on a Perkin Elmer Enspire plate reader. Percent agonism was calculated using the following equation: 100×(sample−negative control)/(positive control−negative control).

THR beta = target: T2, THR beta (Homo sapiens, UniProt P10828); assay: HEK293T THRbeta/RXR luciferase reporter assay; type: cell-based
T2 construct: expressed in transfected cells; host or cells: HEK293T (ATCC CRL-3216)
T2 sequence (P10828 1-461): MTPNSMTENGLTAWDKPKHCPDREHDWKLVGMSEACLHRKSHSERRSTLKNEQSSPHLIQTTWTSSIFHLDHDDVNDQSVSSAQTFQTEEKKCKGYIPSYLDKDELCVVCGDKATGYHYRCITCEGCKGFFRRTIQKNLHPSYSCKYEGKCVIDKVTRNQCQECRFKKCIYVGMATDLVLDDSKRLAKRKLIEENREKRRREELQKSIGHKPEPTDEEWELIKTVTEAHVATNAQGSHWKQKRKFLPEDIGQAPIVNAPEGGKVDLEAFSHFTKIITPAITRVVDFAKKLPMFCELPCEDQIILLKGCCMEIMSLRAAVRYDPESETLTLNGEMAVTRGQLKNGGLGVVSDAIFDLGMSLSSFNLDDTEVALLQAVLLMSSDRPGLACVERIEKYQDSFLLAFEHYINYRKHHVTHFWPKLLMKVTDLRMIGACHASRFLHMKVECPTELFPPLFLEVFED
T2 sequence (P19793 1-462 partner): T1 sequence (P19793 1-462 partner)
Method: as §2, §3

[4] = Pharmacokinetics in rat (i.v.); type: in vivo, Male Sprague-Dawley rats; settings: for concentration at 12 h / clearance / half-life: male, Sprague-Dawley, iv 1 mg/kg; for clearance / half-life: 60% PEG400 in water
Method: Male Sprague-Dawley rats were administered the study compound as an i.v. bolus dose of 1 mg/kg in a 0.500 mg/mL solution in 60% PEG400 in water.

[5] = Microsomal stability assay, mouse; type: in vitro ADME; settings: for Liver Microsomes % Remaining: 1 μM, time point not given; for half-life at 1 μM: liver microsomes, pH 7.4, 0.5 mg/mL microsomes, read-out: Liver Microsomes T1/2
Method: as §1

[6] = Hepatocyte stability assay, rat; type: in vitro ADME; settings: for Hepatocytes % Remaining: 1 μM, time point not given; for half-life at 1 μM: cryopreserved hepatocytes, 0.5 million cells/mL, read-out: Hepatocytes T1/2
Method: (§4) Cryopreserved hepatocytes were taken from the liquid nitrogen tank and thawed quickly in a 37° C. water bath. As soon as the cells pulled away from the vial wall, they were decanted into 48 mL of warm thawing (HT) medium. Cells were centrifuged for 5 minutes at 420 RPM (50 g). After removing the supernatant, the pellets were re-suspended in 4 mL of warm Dulbecco's Modified Eagle Medium (DMEM). Cell density was counted by a hemocytometer.
(§5) The assay was carried out in 96-well microtiter plates. The study compound was incubated at 1 μM with 0.5 million cells/mL hepatocytes in DMEM for 0, 60, 120, and 180 minutes at 37° C. The volume of the incubation mixture was 37 μL with a final DMSO content of 0.1%. At each time point, the incubation was stopped by the addition of 150 μL quenching solution (100% acetonitrile, 0.1% formic acid containing the internal standard bucetin at 15 nM). Subsequently, the mixtures were vortexed for 20 minutes and centrifuged at 4,000 RPM at 10° C. An aliquot of 80 μL of the supernatant was transferred to a clean 96-well plate and analyzed by LC/MS/MS. Midazolam at 1 μM with a final DMSO content of 0.1% was included as a positive control to verify the assay performance.

[7] = Pharmacokinetic profile in mouse; type: in vivo
[8] = target: T3, human thyroid receptor beta ligand-binding domain (THR-β) (Homo sapiens, UniProt P10828); assay: TR-FRET thyroid receptor beta coactivator assay (THR biochemical assay)
T3 sequence (P10828 217-461 limits assumed): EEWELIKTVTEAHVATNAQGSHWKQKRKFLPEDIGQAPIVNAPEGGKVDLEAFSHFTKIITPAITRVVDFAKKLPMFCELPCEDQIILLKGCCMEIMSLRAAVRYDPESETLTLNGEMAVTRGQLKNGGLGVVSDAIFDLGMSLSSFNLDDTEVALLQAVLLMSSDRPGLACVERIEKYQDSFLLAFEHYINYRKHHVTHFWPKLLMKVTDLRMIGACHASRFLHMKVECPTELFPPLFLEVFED
Excerpt: as §6

[9] = Microsomal stability assay, rat; type: in vitro ADME; settings: for Liver Microsomes % Remaining: 1 μM, time point not given; for half-life at 1 μM: liver microsomes, pH 7.4, 0.5 mg/mL microsomes, read-out: Liver Microsomes T1/2
Method: as §1

[10] = Hepatocyte stability assay, human; type: in vitro ADME; settings: for Hepatocytes % Remaining: 1 μM, time point not given; for half-life at 1 μM: cryopreserved hepatocytes, 0.5 million cells/mL, read-out: Hepatocytes T1/2
Method: as §4, §5

[11] = Hepatocyte stability assay, mouse; type: in vitro ADME; settings: for Hepatocytes % Remaining: 1 μM, time point not given; for half-life at 1 μM: cryopreserved hepatocytes, 0.5 million cells/mL, read-out: Hepatocytes T1/2
Method: as §4, §5

Row | Compound | Liver Microsomes % Remaining [1] | half-life at 1 μM [1] [h] | clearance ([4]; plasma) [mL/min/kg] | half-life ([4]; plasma) [h] | Liver Microsomes % Remaining [5] | half-life at 1 μM [5] [h] | Hepatocytes % Remaining [6] | half-life at 1 μM [6] [h] | Liver Microsomes % Remaining [9] | half-life at 1 μM [9] [h] | Hepatocytes % Remaining [10] | half-life at 1 μM [10] [h] | Hepatocytes % Remaining [11] | half-life at 1 μM [11] [h] | further results
1 | CC(c1cc(Oc2c(Cl)cc(-n3nc(N)c(=O)[nH]c3=O)cc2Cl)n[nH]c1=O)C1CC1 (single isomer, unassigned) [Compound 1a] | (107) % | > 1 | 2.14 | 5.25 | (100) % | > 1 | (107) % | > 6 | (98) % | > 1 | (100) % | > 6 | (88) % | > 6 | EC50 [2]: 252 nM; reduction in cholesterol [3]: 24.5%; EC50 (THR alpha): 201 nM; EC50 (THR beta; HEK293T TRE-luciferase reporter, 18-24 h, read-out: EC50 THR-β (HEK 293 Activity)): 38 nM; THR-β Selectivity (HEK 293 Activity) (THR beta; THR-β over THR-α, HEK293T reporter): 5; Liver/Heart Concentration ([4]; at 12 h): 62 at 12 h; in vivo half-life compared to compound 2 ([4]; comparison in words): unexpectedly longer; concentration at 12 h ([4]; liver, read-out: Liver conc. 12 h): 14400 ng/g; concentration at 12 h ([4]; plasma, read-out: Plasma conc. 12 h): 336 ng/mL; Liver/Heart Concentration ([7]; at 24 h): 27.6 at 24 h; clearance ([7]; in vivo): 6.3 mL/min/kg; half-life ([7]; in vivo): 2.87 h; EC50 [8]: 26 nM; THR-β Selectivity (Biochemical Activity) ([8]; THR-β over THR-α, TR-FRET assay): 9.5; in vitro THR-β selectivity compared to its enantiomer, compound 1b ([8]; biochemical assay, comparison in words): higher
2 | C#Cc1nn(-c2cc(Cl)c(Oc3cc(C(C)C)c(=O)[nH]n3)c(Cl)c2)c(=O)[nH]c1=O [Compound 2, reference compound] | (84) % | > 1 | 9.14 | 1.31 | (94) % | > 1 | (24) % | 1.43 | (85) % | > 1 | (31) % | 1.72 | (18) % | 1.18 | –
